Values quoted from earlier work in patent publication US20230114993A1 (priority 2019, published 2023).

System: CADASIL
Conditions: compared to placebo, CADASIL patients

## COc1cc2c(cc1OC)C(=O)C(CC1CCN(Cc3ccccc3)CC1)C2 (stereo not shown) [donepezil]
  Treatment effect in cognitive and executive function assessments: failed to show any treatment effect
